Reference: patent US20240254138A1, “TRICYCLIC PYRIMIDINES AS CYCLIN-DEPENDENT KINASE 7 (CDK7) INHIBITORS” (JANSSEN PHARMACEUTICA NV, priority 2021, published 2024)
Like-named read-outs stand apart in the source and are kept apart here.

Key:
[1] = test system: RNA Polymerase II Serine 5 phosphorylation (Rpb1 CTD, downstream substrate of CDK7) in A549 cells; assay: Imaging-based cellular RNA PolII Ser5 phosphorylation assay in A549 cells; format: cell-based, human; details: wild-type CDK7, RNA PolII Ser5 phosphorylation, averaged over all measurements; for IC50: Homo sapiens, A549, A549 cells, read-out: CDK7_A549 Wild-type CDK7 (pIC50) (converted); for CDK7_A549 Wild-type CDK7 (pIC50): A549 cells
In short: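 A549 cells, seeded 1000/well in DMEM with 1% FBS and cultured 20 h, were treated with compound for 3 h at 37 °C. Ser5-phospho-Rpb1 CTD detected by immunofluorescence imaging after fixation and methanol permeabilization; IC50 from curve fit normalized to DMSO and 10 μM reference-compound controls.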

[2] = target: CDK7/cyclinH/MAT1 trimeric complex (Homo sapiens, UniProt P50613); assay: In vitro CDK7 assay, potency of irreversible covalent inhibitors (kinact/KI), coupled PK/LDH ADP readout at 340 nm; details: for Ki: CDK7 (20 nM enz.) (KI, μM); for Ki / CDK7 (20 nM enz.) (kinact, s^−1) / CDK7 (20 nM enz.) (kinact/KI, M^−1*s^−1) / CDK7 (20 nM enz.) (kobs/[I], M^−1*s^−1): 20 nM enzyme; for kinact: read-out: CDK7 (20 nM enz.) (kinact, s^−1), 20 nM enzyme
Sequence of CDK7/cyclinH/MAT1 trimeric complex (P50613 whole entry): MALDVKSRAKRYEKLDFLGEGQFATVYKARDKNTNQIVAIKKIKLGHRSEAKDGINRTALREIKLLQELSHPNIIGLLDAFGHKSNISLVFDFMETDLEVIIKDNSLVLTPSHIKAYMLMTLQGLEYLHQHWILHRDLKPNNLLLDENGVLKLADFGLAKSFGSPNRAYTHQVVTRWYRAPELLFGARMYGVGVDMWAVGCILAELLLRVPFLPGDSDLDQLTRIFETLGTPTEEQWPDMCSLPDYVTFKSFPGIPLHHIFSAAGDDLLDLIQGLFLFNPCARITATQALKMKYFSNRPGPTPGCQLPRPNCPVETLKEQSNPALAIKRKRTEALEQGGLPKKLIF
Sequence of CDK7/cyclinH/MAT1 trimeric complex (P51946 whole entry partner): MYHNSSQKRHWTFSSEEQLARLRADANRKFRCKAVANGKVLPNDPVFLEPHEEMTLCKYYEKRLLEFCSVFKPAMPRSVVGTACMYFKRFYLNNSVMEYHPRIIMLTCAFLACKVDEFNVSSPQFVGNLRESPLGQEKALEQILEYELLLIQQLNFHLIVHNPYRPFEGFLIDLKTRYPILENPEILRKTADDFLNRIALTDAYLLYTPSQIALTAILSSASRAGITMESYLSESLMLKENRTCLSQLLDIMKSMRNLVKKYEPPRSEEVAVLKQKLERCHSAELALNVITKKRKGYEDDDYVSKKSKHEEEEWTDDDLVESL
Sequence of CDK7/cyclinH/MAT1 trimeric complex (P51948 whole entry partner): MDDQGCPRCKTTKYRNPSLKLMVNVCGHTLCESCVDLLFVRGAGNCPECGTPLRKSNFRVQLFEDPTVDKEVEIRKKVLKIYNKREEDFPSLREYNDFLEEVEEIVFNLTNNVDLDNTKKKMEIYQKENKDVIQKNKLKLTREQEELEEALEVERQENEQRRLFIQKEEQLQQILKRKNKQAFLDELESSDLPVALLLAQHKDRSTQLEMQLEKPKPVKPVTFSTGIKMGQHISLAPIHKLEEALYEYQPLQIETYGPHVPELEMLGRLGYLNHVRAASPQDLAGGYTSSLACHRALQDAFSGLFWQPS

[3] = test system: RNA Polymerase II Serine 5 phosphorylation in A549 cells overexpressing CDK7-mutant (C312S); assay: Imaging-based cellular RNA PolII Ser5 phosphorylation assay in A549 cells overexpressing CDK7-mutant (C312S); format: cell-based, human; details: RNA PolII Ser5 phosphorylation, averaged over all measurements; for IC50: Homo sapiens, A549, A549 cells overexpressing CDK7-mutant (C312S), read-out: CDK7_A549 mutant hCDK7(pIC50) (converted); for CDK7_A549 mutant hCDK7(pIC50): A549 cells overexpressing CDK7-mutant (C312S)
In short: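 A549 cells overexpressing CDK7 C312S (with endogenous wild-type CDK7) were treated with compound for 3 h at 37 °C in 1% FBS medium. Phospho-Rpb1 CTD Ser5 was immunostained after fixation and imaged. IC50 came from curve fit of % control, normalised to DMSO and 10 μM reference-compound controls.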

[4] = read-out: CDK7 (20 nM enz.) (kobs/[I], M^−1*s^−1), 20 nM enzyme
[5] = read-out: CDK7 (20 nM enz.) (kinact/KI, M^−1*s^−1), 20 nM enzyme

Row | Compound | IC50 [1] [µM] | kinact/KI [2, 4] [M⁻¹ s⁻¹] | IC50 [3] [µM] | Ki [2] [µM] | kinact [2] [s⁻¹] | kinact/KI [2, 5] [M⁻¹ s⁻¹] | CDK7 (20 nM enz.) (kinact, s^−1) [2] [s⁻¹] | CDK7 (20 nM enz.) (kinact/KI, M^−1*s^−1) [2] [M⁻¹ s⁻¹] | CDK7_A549 Wild-type CDK7 (pIC50) [1] | CDK7_A549 mutant hCDK7(pIC50) [3] | CDK7 (20 nM enz.) (kobs/[I], M^−1*s^−1) [2] [M⁻¹ s⁻¹]
1 | C=CC(=O)N1CC(N2CCC(c3cc(Cl)c4c(c3)Nc3nccc(C5CCOCC5)c3CO4)CC2)C1 [Compound 101] | 0.0646 | 1110 | > 10 | – | – | – | – | – | – | – | –
2 | C=CC(=O)N1CCC(N2CC(c3cc4c(c(C(F)(F)F)c3)OCc3c(-c5cnn(C)c5)ccnc3N4)C2)CC1 [Compound 102] | 0.0407 | – | 3.55 | 0.0268 | 4.38e-05 | 1630 | – | – | – | – | –
3 | C=CC(=O)N1CC(N2CCC(c3cc(Cl)c4c(c3)Nc3nccc(N5CCS(=O)(=O)CC5)c3CO4)CC2)C1 [Compound 103] | 0.126 | – | > 10 | 0.0424 | 8.56e-05 | 2020 | – | – | – | – | –
4 | C=CC(=O)N1CCC(N2CCC(c3cc(C)c4c(c3)Nc3nccc(-c5cnn(C)c5)c3CO4)CC2)CC1 [Compound 105] | 0.0162 | – | 2.57 | 0.0256 | 5.8e-05 | 2260 | – | – | – | – | –
5 | C=CC(=O)N1CC(N2CCC(c3ccc4c(c3)Nc3nccc(N5CCOCC5)c3CO4)CC2)C1 [Compound 107] | 0.11 | – | > 10 | 0.056 | 5.28e-05 | 943 | – | – | – | – | –
6 | C=CC(=O)N1CC(c2ncc(-c3cc(C)c4c(c3)Nc3nccc(N5CCS(=O)(=O)CC5)c3CO4)cn2)C1 [Compound 108] | 0.933 | – | > 10 | 0.57 | 5.75e-05 | 101 | – | – | – | – | –
7 | C=CC(=O)N1CC(N2CC[C@H](c3ccc4c(c3)Nc3nccc(N5CCOCC5)c3CO4)[C@@H](F)C2)C1 [Compound 110] | 0.257 | – | > 10 | 0.23 | – | – | 5.833e-05 | 253.792 | – | – | –
8 | C=CC(=O)N1CCC(N2CC(c3cc4c(c(C(F)(F)F)c3)OCc3c(N5CCOCC5)ccnc3N4)C2)CC1 [Compound 111] | 0.0457 | 622 | 4.17 | – | – | – | – | – | – | – | –
9 | C=CC(=O)N1CCC(N2CC(c3cc(F)c4c(c3)Nc3nccc(C5CCOCC5)c3CO4)C2)CC1 [Compound 112] | 0.155 | – | 8.51 | 0.0653 | 4.53e-05 | 693 | – | – | – | – | –
10 | C=CC(=O)N1CCC(N2CCC(c3ccc4c(c3)Nc3nccc(N5CCS(=N)(=O)CC5)c3CO4)CC2)CC1 [Compound 113] | 0.38 | – | > 10 | 0.39 | 6.16e-05 | 158 | – | – | – | – | –
11 | C=CC(=O)N1CC(c2ncc(-c3cc(C)c4c(c3)Nc3nccc(C5CCOCC5)c3CO4)cn2)C1 [Compound 114] | 0.0501 | – | > 10 | 0.0779 | 4.23e-05 | 543 | – | – | – | – | –
12 | C=CC(=O)N1CC(N2CCC(c3cc(Cl)c4c(c3)Nc3nccc(N5CCS(=O)(=O)CC5)c3CO4)CC2)C1 [Compound 115] | – | – | – | 0.0486 | – | – | 5.802e-05 | 1193.86 | 6.66 | <5 | –
13 | C=CC(=O)N1CCC(c2nc(C)c(-c3cc(C)c4c(c3)Nc3nccc(C5CCOCC5)c3CO4)c(C)n2)CC1 [Compound 116] | 0.398 | – | > 10 | 0.293 | 5.05e-05 | 173 | – | – | – | – | –
14 | C=CC(=O)N1CCC(N2CC(c3cc(F)c4c(c3)Nc3nccc(-c5cnn(C)c5)c3CO4)C2)CC1 [Compound 117] | 0.126 | – | 7.76 | 0.0512 | 4.56e-05 | 891 | – | – | – | – | –
15 | C#Cc1cc(C2CCN(C3CN(C(=O)C=C)C3)CC2)cc2c1OCc1c(C3CCOCC3)ccnc1N2 [Compound 118] | 0.0708 | 1620 | > 10 | – | – | – | – | – | – | – | –
16 | C=CC(=O)N1CC(N2CCC(c3cc(Cl)c4c(c3)Nc3nccc(C5CCOCC5)c3CO4)CC2)C1 [Compound 119] | – | – | – | – | – | – | – | – | 7.42 | <5 | 1611.37
17 | C#Cc1cc2c(cc1C1CCN(C3CN(C(=O)C=C)C3)CC1)Nc1nccc(C3CCOCC3)c1CO2 [Compound 120] | 0.331 | – | > 10 | 0.0783 | 8.13e-05 | 1040 | – | – | – | – | –
18 | C=CC(=O)N1CC(N2CCC(c3ccc4c(c3)Nc3nccc(N5CCOCC5)c3CO4)CC2)C1 [Compound 121] | – | – | – | 0.0963 | – | – | 9.753e-05 | 1012.54 | 6.9 | <5 | –
19 | C#CCCN(C)C/C=C/C(=O)N1CC(N2CCC(c3cc(C)c4c(c3)Nc3nccc(N5CCOCC5)c3CO4)CC2)C1 [Compound 122] | 0.0692 | 1660 | > 10 | – | – | – | – | – | – | – | –
20 | C=CC(=O)N1CC(N2CCC(c3ccc4c(c3)Nc3nccc(C5CCOCC5)c3CO4)CC2)C1 [Compound 123] | – | – | – | 0.0244 | 3.4e-05 | 1390 | – | – | 7.15 | <5 | –
21 | C#CCCN(C)C/C=C/C(=O)N1CC(N2CCC(c3cc(C)c4c(c3)Nc3nccc(C5CCOCC5)c3CO4)CC2)C1 [Compound 124] | 0.0977 | 1550 | > 10 | – | – | – | – | – | – | – | –
22 | C=CC(=O)N1CC(N2CCC(c3cc(C#N)c4c(c3)Nc3nccc(C5CCOCC5)c3CO4)CC2)C1 [Compound 125] | 0.0275 | 1230 | 7.24 | – | – | – | – | – | – | – | –
23 | C=CC(=O)N1CC(N2CCC(c3cc(F)c4c(c3)Nc3nccc(-c5cnn(C)c5)c3CO4)CC2)C1 [Compound 126] | 0.0479 | – | > 10 | – | – | – | – | – | – | – | 875.576
24 | C=CC(=O)N1CC(c2nc(C)c(-c3cc(C)c4c(c3)Nc3nccc(C5CCOCC5)c3CO4)c(C)n2)C1 [Compound 129] | 0.151 | – | > 10 | 0.17 | 5.48e-05 | 323 | – | – | – | – | –
25 | C=CC(=O)N1CC(N2CCC(c3cc4c(cn3)OCc3c(C5CCOCC5)ccnc3N4)CC2)C1 [Compound 130] | 0.0977 | – | > 10 | 0.11 | 7.73e-05 | 704 | – | – | – | – | –
26 | C=CC(=O)N1CC(N2CCC(c3ccc4c(c3)Nc3nccc(N5CCc6nn(C)cc6C5)c3CO4)CC2)C1 [Compound 132] | 0.363 | – | > 10 | 0.312 | 7.08e-05 | 227 | – | – | – | – | –
27 | C=CC(=O)N1CC(N2CCC(c3cc(C)c4c(c3)Nc3nccc(C5CCS(=O)(=O)CC5)c3CO4)CC2)C1 [Compound 133] | 0.166 | – | > 10 | 0.0971 | 6.94e-05 | 715 | – | – | – | – | –
28 | C=CC(=O)N1CC(N2CCC(c3cc4c(c(C(=O)NC)c3)OCc3c(C5CCOCC5)ccnc3N4)CC2)C1 [Compound 135] | 0.263 | – | ~7.08 | 0.0578 | 5.71e-05 | 988 | – | – | – | – | –
29 | C=CC(=O)N1CCC(N2CC(c3cc(F)c4c(c3)Nc3nccc(N5CCOCC5)c3CO4)C2)CC1 [Compound 136] | 0.0724 | – | 7.24 | 0.0603 | 4.42e-05 | 734 | – | – | – | – | –
